# Structures can show the parent of a compound that is named as a salt. Where two headings read alike, the source gives them in different places.
# How the values were obtained:
# [1] = tested on: carrageenin-induced edema in the hind paw of a rat; experiment: Carrageenin Assay (carrageenin-induced edema, hind paw); format: in vivo, rat (male, Long Evans strain); conditions: Rattus norvegicus, 1 h before carrageenin, edema at 3 h, compared to phenylbutazone control values, read-out: % Reduction of Edema; for inhibition in vivo at 200 mg/kg: 200 mg/kg oral; for inhibition in vivo at 150 mg/kg: 150 mg/kg oral; for inhibition in vivo at 175 mg/kg: 175 mg/kg oral
# Experimental: The procedure employed is a modification of the method of Winter et al, Proc. Soc. Exptl. Biol. Med. 111:544 (1962). The device used for measurement of the paw volume is an adaptation of the water displacement procedure described by Adamkiewicz et al, Can. J. Biochem. Physiol. 33:332 (1955). Test compounds were administered orally, one hour prior to the intraplantar injection of 0.05 ml. of sterile 1.0 percent solution of carrageenin into the left hind paw of male rats (Long Evans strain) weighing between about 130-200 grams. At peak swelling time (3 hours) the volume of edema was calculated by differential paw volumes.
# Table I sets forth the results obtained (indicated as percent reduction of edema compared to phenylbutazone control values) at the indicated dosages for each of the identified compounds.
# [2] = tested on: phenylquinone writhing in mice; experiment: Phenylquinone Writhing Assay (analgesia); format: in vivo, mouse (Carworth CF1 male mice); conditions: Mus musculus, po, read-out: Phenylquinone Writhing Assay (% Control), percent analgesia; for responders at 100 mg/kg: 100 mg/kg oral; for responders at 30 mg/kg: 30 mg/kg oral; for responders at 50 mg/kg: 50 mg/kg oral
# Experimental: The phenylquinone writhing test was employed to evaluate analgesic activity according to the following procedure:
# Phenylquinone (phenyl-p-benzoquinone, No. 7104, Eastman Organic Chemicals) is made up as a 0.02% aqueous solution in 5% ethyl alcohol. Phenylquinone solutions are made up fresh twice daily. Standard reference agents and the test compounds are dissolved or suspended in a 0.25% methylcellulose solution. A control group consisting of ten mice (Carworth CF1 male mice) are administered the 0.02% phenylquinone solution at a dose of 0.25 ml/mouse. The mice are housed individually and observed closely for ten minutes for exhibition of writhing. The onset of writhing occurs within three minutes and 100% of the mice must writhe within ten minutes. Test compounds are administered orally to groups of ten mice. The volume given is 0.01 ml/gram of body weight. Activity can be studied at 15, 30, 60, and 120 minutes after oral administration. After the designated time interval of a dose group has elapsed, the mice are challenged with phenylquinone intraperitoneally. Complete blocking of the writhing syndrom for the ten minute observation period in any one mouse is considered a positive analgesic response for that mouse. Conversely, if any mouse writhes definitely once it is considered not to be protected. The number of mice not writhing in group multiplied by ten equals percent analgesia for that dose at that time interval.
compound,measurement,setting,value
"CSc1nncc(-c2ccc(N3CCOCC3)cc2)n1 [Example 40, 3-methylthio-5-(4'-morpholinophenyl)-1,2,4-triazine]",inhibition in vivo at 200 mg/kg,[1],19%
same,responders at 100 mg/kg,"[2]; 0.25 h, 15 Min.",30%
same,responders at 100 mg/kg,"[2]; 0.5 h, 30 Min.",10%
"NCC(=O)NNc1nncc(-c2ccccc2)n1 [Example 113, N2-(5-Phenyl-1,2,4-Triazin-3-yl) Glycine Hydrazide (Dihydrobromide Hydrate)]",inhibition in vivo at 50 mg/kg,[1]; 50 mg/kg oral,32%
"CSc1nncc(-c2cc3ccccc3o2)n1 [Example 35, 3-methylthio-5-(2'-benzofuryl)-1,2,4-triazine]",inhibition in vivo at 200 mg/kg,[1],2%
same,responders at 100 mg/kg,"[2]; 0.25 h, 15 Min.",10%
same,responders at 100 mg/kg,"[2]; 0.5 h, 30 Min.",10%
same,responders at 100 mg/kg,"[2]; 1 h, 60 Min",10%
"Cc1nnc(SCc2ccccc2)nc1C [Example 56, 3-benzylthio-5,6-dimethyl-1,2,4-triazine]",inhibition in vivo at 200 mg/kg,[1],52%
"CSc1nnc(C)c(C)n1 [Example 10, 3-methylthio-5,6-dimethyl-1,2,4-triazine]",inhibition in vivo at 70 mg/kg,[1]; 70 mg/kg oral,54%
same,responders at 100 mg/kg,"[2]; 0.5 h, 30 Min.",70%
same,responders at 100 mg/kg,"[2]; 1 h, 60 Min",20%
"CSc1nncc(C2CC2)n1 [Example 37, 3-methylthio-5-cyclopropyl-1,2,4-triazine]",inhibition in vivo at 200 mg/kg,[1],86%
same,responders at 100 mg/kg,"[2]; 0.25 h, 15 Min.",20%
"COc1nncc(C23CC4CC(CC(C4)C2)C3)n1 [Example 36, 3-methoxy-5-(1'-adamantyl)-1,2,4-triazine]",inhibition in vivo at 150 mg/kg,[1],30%
"COc1ccc(-c2cnnc(SC)n2)cc1 [Example 44, 3-methylthio-5-(4'-methoxyphenyl)-1,2,4-triazine]",inhibition in vivo at 200 mg/kg,[1],18%
same,responders at 100 mg/kg,"[2]; 0.25 h, 15 Min.",10%
same,responders at 100 mg/kg,"[2]; 0.5 h, 30 Min.",10%
same,responders at 100 mg/kg,"[2]; 1 h, 60 Min",20%
"COc1nnc(-c2ccccn2)c(-c2ccccn2)n1 [Example 27, 3-methoxy-5,6-di(2'-pyridyl)-1,2,4-triazine]",inhibition in vivo at 200 mg/kg,[1],46%
"CSc1nncc(-c2c(C)cc(C)cc2C)n1 [Example 39, 3-methylthio-5-(2',4',6'-trimethylphenyl)-1,2,4-triazine]",inhibition in vivo at 200 mg/kg,[1],7%
same,responders at 100 mg/kg,"[2]; 0.25 h, 15 Min.",10%
same,responders at 100 mg/kg,"[2]; 1 h, 60 Min",10%
"COc1nncc(-c2ccco2)n1 [Example 20, 3-methoxy-5-(2'-furyl)-1,2,4-triazine]",inhibition in vivo at 175 mg/kg,[1],70%
same,responders at 30 mg/kg,"[2]; 0.5 h, 30 Min.",10%
"COc1nncc(-c2ccc(Br)cc2)n1 [Example 45, 3-methoxy-5-(4'-bromophenyl)-1,2,4-triazine]",inhibition in vivo at 200 mg/kg,[1],33%
"CCCOc1nncc(-c2ccccc2)n1 [Example 31, 3-n-propoxy-5-phenyl-1,2,4-triazine]",inhibition in vivo at 200 mg/kg,[1],51%
same,responders at 100 mg/kg,"[2]; 0.25 h, 15 Min.",10%
"CSc1nncc(-c2ccccc2)n1 [Example 1, 3-methylthio-5-phenyl-1,2,4-triazine]",inhibition in vivo at 175 mg/kg,[1],27%
same,responders at 50 mg/kg,"[2]; 0.25 h, 15 Min.",10%
same,responders at 100 mg/kg,"[2]; 0.5 h, 30 Min.",10%
"C[C@@H]1CC[C@H](C)N1c1nnc(-c2ccccc2)c(-c2ccccc2)n1 [Example 52, 3-(cis-2',5'-dimethylpyrrolidyl)-5,6-diphenyl-1,2,4-triazine]",inhibition in vivo at 200 mg/kg,[1],22%
same,responders at 100 mg/kg,"[2]; 0.5 h, 30 Min.",30%
same,responders at 100 mg/kg,"[2]; 1 h, 60 Min",10%
"OCCNc1nncc(-c2ccccc2)n1 [Example 28, 3-B-hydroxyethyl amino-5-phenyl-1,2,4-triazine]",inhibition in vivo at 200 mg/kg,[1],43%
same,responders at 100 mg/kg,"[2]; 0.25 h, 15 Min.",30%
same,responders at 100 mg/kg,"[2]; 0.5 h, 30 Min.",10%
same,responders at 100 mg/kg,"[2]; 1 h, 60 Min",10%
"Cc1ccc(Oc2nnc(-c3ccccc3)c(-c3ccccc3)n2)cc1 [Example 60, 3-(4'-methylphenoxy)-5,6-diphenyl-1,2,4-triazine]",inhibition in vivo at 200 mg/kg,[1],18%
"COc1ccc(Oc2nncc(-c3ccccc3)n2)cc1 [Example 63, 3-(4'-methoxyphenoxy)-5-phenyl-1,2,4-triazine]",inhibition in vivo at 200 mg/kg,[1],15%
"CSc1nncc(-c2ccc(Br)cc2)n1 [Example 43, 3-methylthio-5-(4'-bromophenyl)-1,2,4-triazine]",inhibition in vivo at 200 mg/kg,[1],20%
same,responders at 100 mg/kg,"[2]; 0.25 h, 15 Min.",10%
same,responders at 100 mg/kg,"[2]; 0.5 h, 30 Min.",10%
same,responders at 100 mg/kg,"[2]; 1 h, 60 Min",10%
"COc1ccc(-c2cnnc(OC)n2)cc1 [Example 46, 3-methoxy-5-(4'-methoxyphenyl)-1,2,4-triazine]",inhibition in vivo at 200 mg/kg,[1],17%
"COc1nncc(-c2ccc3ccccc3c2)n1 [Example 22, 3-methoxy-5-(2'-naphthyl)-1,2,4-triazine]",inhibition in vivo at 200 mg/kg,[1],7%
same,responders at 100 mg/kg,"[2]; 0.25 h, 15 Min.",20%
same,responders at 100 mg/kg,"[2]; 0.5 h, 30 Min.",10%
same,responders at 100 mg/kg,"[2]; 1 h, 60 Min",10%
"CN(CCO)c1nnc(-c2ccccc2)c(-c2ccccc2)n1 [Example 55, 3-(N-methyl-N-B-hydroxyethylamino)-5,6-diphenyl-1,2,4-triazine]",inhibition in vivo at 200 mg/kg,[1],23%
same,responders at 100 mg/kg,"[2]; 0.25 h, 15 Min.",20%
"COc1nncc(-c2ccc(F)cc2F)n1 [Example 58, 3-methoxy-5-(2',4'-difluorophenyl)-1,2,4-triazine]",inhibition in vivo at 150 mg/kg,[1],36%
"CCOc1nncc(-c2ccccc2)n1 [Example 21, 3-ethoxy-5-phenyl-1,2,4-triazine]",inhibition in vivo at 200 mg/kg,[1],96%
"CSc1nncc(-c2ccc([N+](=O)[O-])cc2)n1 [Example 57, 3-methylthio-5-(4'-nitrophenyl)-1,2,4-triazine]",inhibition in vivo at 200 mg/kg,[1],16%
"COc1nncc(C)n1 [Example 17, 3-methoxy-5-methyl-1,2,4-triazine]",inhibition in vivo at 200 mg/kg,[1],8%
"Clc1nnc(-c2ccccc2)c(-c2ccccc2)n1 [Example 51, 3-chloro-5,6-diphenyl-1,2,4-triazine]",inhibition in vivo at 200 mg/kg,[1],4%
"COc1nncc(-c2cccc3ccccc23)n1 [Example 29, 3-methoxy-5-(1'-naphthyl)-1,2,4-triazine]",inhibition in vivo at 200 mg/kg,[1],22%
same,responders at 30 mg/kg,"[2]; 0.25 h, 15 Min.",10%
same,responders at 100 mg/kg,"[2]; 0.25 h, 15 Min.",10%
same,responders at 50 mg/kg,"[2]; 0.5 h, 30 Min.",10%
"C=CCOc1nncc(-c2ccccc2)n1 [Example 47, 3-allyloxy-5-phenyl-1,2,4-triazine]",inhibition in vivo at 200 mg/kg,[1],67%
"CCCCCOc1nncc(-c2ccccc2)n1 [Example 64, 3-n-pentoxy-5-phenyl-1,2,4-triazine]",inhibition in vivo at 200 mg/kg,[1],29%
"CCc1ccc(-c2cnnc(SC)n2)cc1 [Example 62, 3-methylthio-5-(4'-ethylphenyl)-1,2,4-triazine]",inhibition in vivo at 200 mg/kg,[1],33%
"CSc1nncc(-c2ccccc2)n1 [Example 59, 3-methylthio-5-phenyl-1,2,4-triazine (hydrogen iodide salt)]",inhibition in vivo at 150 mg/kg,[1],14%
"CCOc1nnc(-c2ccccc2)c(-c2ccccc2)n1 [Example 61, 3-ethoxy-5,6-diphenyl-1,2,4-triazine]",inhibition in vivo at 200 mg/kg,[1],12%
"COc1nncc(C2CC2)n1 [Example 41, 3-methoxy-5-cyclopropyl-1,2,4-triazine]",inhibition in vivo at 200 mg/kg,[1],57%
"CSc1nnc(-c2ccc(NC(C)=O)cc2)c(-c2ccc(NC(C)=O)cc2)n1 [Example 14, 3-methylthio-5,6-(4'-acetamidophenyl)-1,2,4-triazine]",inhibition in vivo at 200 mg/kg,[1],12%
"CSc1nncc(-c2c[nH]c3ccccc23)n1 [Example 13, 3-methylthio-5-(3'-indolyl)-1,2,4-triazine]",inhibition in vivo at 200 mg/kg,[1],71%
"COc1ccc(-c2cnnc(SC)n2)cc1OC [Example 33, 3-methylthio-5-(3',4'-dimethoxyphenyl)-1,2,4-triazine]",inhibition in vivo at 200 mg/kg,[1],32%
"COc1nnc(C)c(C)n1 [Example 23, 3-methoxy-5,6-dimethyl-1,2,4-triazine]",inhibition in vivo at 40 mg/kg,[1]; 40 mg/kg oral,4%

# — US4157392A, “Pharmacologically active substituted 1,2,4-triazines” (Diamond Shamrock Corporation, priority 1978, dated 1979)
